Measurements published in US8153821B2, “Compounds” (priority 2008, dated 2012).

Key:
panel of 65 receptors = test: Multiple receptor screening assay; type: binding; details: single concentration of 10 μM
Method: (R)-3-((E)-2-(Pyrrolidin-3-yl)vinyl)-5-(tetrahydropyran-4-yloxy)pyridine or a salt thereof was tested for selectivity against a panel of 65 receptors.

hERG = biological target: T1, hERG (Homo sapiens, UniProt Q12809); test: cell-based
T1 construct: expressed in transfected cells; host or cells: HEK-239 (so in the source)

[1] = test system: rats with scopolamine-induced cognitive deficits; test: Radial arm maze (RAM), scopolamine-induced deficit; type: in vivo, rat; details: 0.03 mg/kg or 0.1 μmol/kg p.o. 0.5 h prior to test trial, scopolamine 0.3±0.1 mg/kg s.c.
Method: Working memory was assessed in a radial arm maze (RAM) task. The RAM task was conducted using an automated eight-arm maze (Med Associates, Inc.) The maze was located on a circular table approximately 88 cm above the floor with overhead lighting in a dedicated testing ambient and large, high contrast geometric shapes on the wall. Furthermore, additional visual cues were located at the hub entry into each arm, above each the food hopper and on the ceiling. The central platform measured 30.5 cm in diameter with eight arms (9 cm W×45.7 cm L×16.8 cm H) radiating from it. Automatic guillotine doors were located at the entrance to each runway with a pellet receptacle at the distal end of each arm. White noise will be audible during all training and testing procedures. Activity on the maze was monitored by tracking quantitative activity (generated by infra-red beam breaks) on the computer interface and monitor screen.
Following the baseline assessment and after re-attainment test session criterion, animals were assessed for their sensitivity to chemically-induced cognitive impairment using the muscarinic antagonist scopolamine (0.2-0.4 mg/kg; s.c.). A dose of scopolamine was determined for each animal based on the minimum dose that produced significant and reliable cognitive impairment. […]

[2] = test system: CYP1A2, CYP2C9, CYP2C19, CYP2D6, CYP3A4 (5 major CYPs); test: in vitro; type: in vitro ADME; details: human
Method: Inhibition of CYP1A2, CYP2C9, CYP2C19, CYP2D6 and CYP3A4 catalytic activity by (R)-3-((E)-2-(pyrrolidin-3-yl)vinyl)-5-(tetrahydropyran-4-yloxy)pyridine or a slat thereof was assessed using a fluorogenic CYP assay. Probe substrates which fluoresce upon CYP catalyzed oxidation were used to evaluate the degree of inhibition of the test substrate. A single concentration of each probe substrate (at approximately the apparent Km value) and two different concentrations of (R)-3-((E)-2-(pyrrolidin-3-yl)vinyl)-5-(tetrahydropyran-4-yloxy)pyridine hemigalactarate (2 and 20 μM) were tested in duplicate. Fluorescence intensity at selected wavelengths was used as a measure of enzyme activity. Decreased fluorescence in the presence of (R)-3-((E)-2-(pyrrolidin-3-yl)vinyl)-5-(tetrahydropyran-4-yloxy)pyridine or a sat thereof was an indication of inhibition. […] Duplicate samples were run alongside the positive and negative controls. Incubation of test samples was performed at 37° C. Experimental parameters are outlined in Table 2.

CYP1A2 = CYP1A2 (Homo sapiens, UniProt P05177); type: in vitro ADME
α4β2 = α4β2 (Homo sapiens, UniProt P17787+P43681); test: Calcium flux assay, SH-EP1/human α4β2 cells; type: cell-based; set-up: expressed in transfected cells; host or cells: SH-EP1
Source text: Cellular efficacy: The aim of these studies was to determine functional activity of (R)-3-((E)-2-(pyrrolidin-3-yl)vinyl)-5-(tetrahydropyran-4-yloxy)pyridine or a salt thereof at human recombinant α4β2 receptors.

Sequence of α4β2 (P43681 29-627 limits assumed): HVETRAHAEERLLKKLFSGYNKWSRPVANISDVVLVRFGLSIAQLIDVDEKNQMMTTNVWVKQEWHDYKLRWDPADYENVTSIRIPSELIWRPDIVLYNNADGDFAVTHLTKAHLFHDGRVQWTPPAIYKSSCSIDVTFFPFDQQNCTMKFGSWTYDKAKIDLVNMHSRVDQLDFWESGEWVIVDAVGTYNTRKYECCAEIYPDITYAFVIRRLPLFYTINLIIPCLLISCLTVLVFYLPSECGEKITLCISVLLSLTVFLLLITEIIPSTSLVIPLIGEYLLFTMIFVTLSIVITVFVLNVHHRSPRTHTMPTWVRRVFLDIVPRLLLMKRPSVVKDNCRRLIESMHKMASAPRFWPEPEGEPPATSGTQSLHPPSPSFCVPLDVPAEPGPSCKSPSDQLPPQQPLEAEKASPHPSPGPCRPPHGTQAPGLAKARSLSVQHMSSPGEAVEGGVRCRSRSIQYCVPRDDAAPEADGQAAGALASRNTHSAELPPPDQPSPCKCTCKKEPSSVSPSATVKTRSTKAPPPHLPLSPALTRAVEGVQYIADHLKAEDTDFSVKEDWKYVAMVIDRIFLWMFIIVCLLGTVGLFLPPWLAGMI
Sequence of α4β2 (P17787 26-502): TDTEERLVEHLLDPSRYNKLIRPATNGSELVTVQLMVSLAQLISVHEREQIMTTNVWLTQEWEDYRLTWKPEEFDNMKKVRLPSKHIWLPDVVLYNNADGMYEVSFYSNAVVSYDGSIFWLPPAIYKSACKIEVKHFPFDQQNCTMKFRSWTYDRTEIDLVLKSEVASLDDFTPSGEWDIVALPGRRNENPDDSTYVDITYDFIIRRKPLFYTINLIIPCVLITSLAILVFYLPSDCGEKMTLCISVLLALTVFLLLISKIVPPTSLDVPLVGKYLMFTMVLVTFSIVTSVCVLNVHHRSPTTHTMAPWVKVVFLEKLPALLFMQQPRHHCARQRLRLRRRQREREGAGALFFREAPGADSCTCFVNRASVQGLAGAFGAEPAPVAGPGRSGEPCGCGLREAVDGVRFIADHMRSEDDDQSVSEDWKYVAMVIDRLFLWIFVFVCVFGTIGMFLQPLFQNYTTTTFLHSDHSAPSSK
T1 sequence (Q12809 whole entry): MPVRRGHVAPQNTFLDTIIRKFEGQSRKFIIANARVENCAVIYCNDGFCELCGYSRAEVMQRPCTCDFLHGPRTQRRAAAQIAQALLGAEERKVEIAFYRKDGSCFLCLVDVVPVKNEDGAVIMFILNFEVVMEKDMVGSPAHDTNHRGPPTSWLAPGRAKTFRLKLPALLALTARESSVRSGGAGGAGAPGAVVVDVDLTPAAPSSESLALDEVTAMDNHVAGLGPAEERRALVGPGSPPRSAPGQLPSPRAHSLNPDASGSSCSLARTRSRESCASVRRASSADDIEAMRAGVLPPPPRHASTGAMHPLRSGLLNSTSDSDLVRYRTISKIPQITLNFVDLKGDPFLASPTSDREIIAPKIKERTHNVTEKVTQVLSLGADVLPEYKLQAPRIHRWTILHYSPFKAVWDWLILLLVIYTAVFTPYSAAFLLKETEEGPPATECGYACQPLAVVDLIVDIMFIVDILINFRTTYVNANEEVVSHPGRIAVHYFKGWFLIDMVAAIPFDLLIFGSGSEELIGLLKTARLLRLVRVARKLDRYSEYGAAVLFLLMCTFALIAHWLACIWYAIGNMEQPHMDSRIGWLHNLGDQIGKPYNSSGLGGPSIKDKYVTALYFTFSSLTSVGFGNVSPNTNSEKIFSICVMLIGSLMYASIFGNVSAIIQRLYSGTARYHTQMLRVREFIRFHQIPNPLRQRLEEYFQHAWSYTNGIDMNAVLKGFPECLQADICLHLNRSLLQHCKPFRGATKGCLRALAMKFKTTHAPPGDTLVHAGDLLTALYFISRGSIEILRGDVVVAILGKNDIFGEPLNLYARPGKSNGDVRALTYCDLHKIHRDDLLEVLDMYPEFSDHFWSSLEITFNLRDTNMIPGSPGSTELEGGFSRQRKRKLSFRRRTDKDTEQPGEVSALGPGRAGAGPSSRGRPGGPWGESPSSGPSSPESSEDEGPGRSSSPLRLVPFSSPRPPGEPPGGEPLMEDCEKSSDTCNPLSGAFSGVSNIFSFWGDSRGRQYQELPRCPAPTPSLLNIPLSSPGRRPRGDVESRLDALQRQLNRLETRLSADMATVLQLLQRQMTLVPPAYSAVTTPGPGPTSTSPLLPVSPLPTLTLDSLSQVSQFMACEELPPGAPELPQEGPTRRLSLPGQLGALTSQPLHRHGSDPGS
Sequence of CYP1A2 (P05177 whole entry): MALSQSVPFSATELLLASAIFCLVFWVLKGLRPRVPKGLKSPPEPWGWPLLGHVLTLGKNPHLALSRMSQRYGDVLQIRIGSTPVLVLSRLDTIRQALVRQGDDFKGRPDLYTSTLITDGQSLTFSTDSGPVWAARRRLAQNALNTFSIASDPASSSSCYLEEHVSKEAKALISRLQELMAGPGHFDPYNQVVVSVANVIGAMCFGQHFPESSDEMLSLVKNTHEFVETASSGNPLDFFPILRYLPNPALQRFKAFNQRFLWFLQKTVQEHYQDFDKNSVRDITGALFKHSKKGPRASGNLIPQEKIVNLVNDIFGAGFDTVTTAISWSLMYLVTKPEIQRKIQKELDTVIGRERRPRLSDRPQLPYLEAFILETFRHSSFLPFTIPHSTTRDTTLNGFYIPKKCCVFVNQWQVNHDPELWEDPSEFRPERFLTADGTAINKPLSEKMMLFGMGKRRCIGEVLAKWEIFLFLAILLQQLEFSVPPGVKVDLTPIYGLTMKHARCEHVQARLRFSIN

## C(=C\[C@H]1CCNC1)/c1cncc(OC2CCOCC2)c1 [Compound A, (R)-3-((E)-2-(pyrrolidin-3-yl)vinyl)-5-(tetrahydropyran-4-yloxy)pyridine]
Panel of 65 receptors
  Multiple receptor screening assay, receptors hit: only to neuronal nicotinic receptors (α-BnTx insensitive)
Panel of 65 receptors; listed as (R)-3-(2-(pyrrolidin-3-yl)vinyl)-5-((tetrahydro-2H-pyran-4 yl)oxy)pyridine
  Multiple receptor screening assay, receptors hit: Only nicotinic
hERG
  IC50: 84 µM
[1]
  RAM effect on scopolamine-induced cognitive deficits: overcomes scopolamine induced deficits
[1]; listed as (R)-3-((E)-2-(Pyrrolidin-3-yl)vinyl)-5-(tetrahydropyran-4-yloxy)pyridine
  RAM effect on scopolamine-induced cognitive deficits: able to reverse scopolamine-induced cognitive deficits
[2]
  IC50: > 20 µM
CYP1A2
  time-dependent inhibition of CYP1A2: no evidence of time-dependent inhibition
α4β2
  EC50: 0.1 µM
α4β2; SH-EP1, read-out: Human recombinant (SH-EP 1) α4β2 Emax (Ca flux)
  Emax: 76%
α4β2; in relation to 10 μM nicotine, 24-h incubation at 29° C.
  Human recombinant (SH-EP 1) α4β2 Emax (Ca flux): μM, 76%
